Entries after “also recorded” stand apart in the source; their conditions may differ.
Assays:
[1] = system: intracellular amastigote stages of L. donovani; test: Synergy evaluation, combination index method with amphotericin B; type: cell-based, Leishmania donovani
[2] = system: L. donovani promastigotes; details: read-out: IC50 on L. donovani promastigotes; ref 38 (Patterson et al); cited from earlier work
[3] = system: various clinical isolates of L. donovani; details: read-out: lowest IC50, L. donovani isolates obtained from Ethiopia; ref 38 (Patterson et al); cited from earlier work
L. mexicana = details: read-out: IC50 on L. mexicana; ref 28 (Berry et al); cited from earlier work
[4] = cited from earlier work
[5] = co-administered with tenofovir, efavirenz, ritonavir and rifampin; cited from earlier work
[6] = system: Leishmania donovani promastigotes; type: cell-based

| SMILES | synergistic activity with amphotericin B [1] | IC50 [2] [nM] | IC50 [3] [nM] | IC50 (L. mexicana) [nM] | renal excretion [4] [%] | volume of distribution ([4]; in words) | interaction with anti-retroviral and anti-TB drugs [5] | inhibition of promastigotes in primary screening ([6]; 1 μM, 72 h, average of two independent experiments in triplicate) | dose-dependent inhibitory effect in subsequent dose titration assay ([6]; promastigotes) |
| --- | --- | --- | --- | --- | --- | --- | --- | --- | --- |
| C[C@]1(COc2ccc(N3CCC(Oc4ccc(OC(F)(F)F)cc4)CC3)cc2)Cn2cc([N+](=O)[O-])nc2O1 [MMV688262, delamanid] | synergistic effect; also recorded: synergistic activity | 15 | 86.5 | 1780 | < 5 | high volume of distribution | no clinically relevant interaction |  |  |
| CC(C)(C)C(O)C(Oc1ccc(-c2ccccc2)cc1)n1cncn1 (stereo not drawn) [MMV688942] |  |  |  |  |  |  |  | considerable activity | failed to demonstrate a dose-dependent inhibitory effect |

Reference: PMC7130106 (Drug Design, Development and Therapy, 2020)
